From patent US6872743B2, “sPLA2 inhibitors” (Eli Lilly and Company, priority 2000, dated 2005)

The molecules below were run against T1, recombinant human secreted phospholipase A2 (Homo sapiens, UniProt P14555) (assay: chromogenic assay for inhibitors of recombinant human secreted phospholipase A2). Conditions: diheptanoyl thio-PC substrate, pH 7.5, 40° C. for 30 minutes, absorbance at 405 nanometers, titrated in triplicate.
T1 sequence (P14555 21-144): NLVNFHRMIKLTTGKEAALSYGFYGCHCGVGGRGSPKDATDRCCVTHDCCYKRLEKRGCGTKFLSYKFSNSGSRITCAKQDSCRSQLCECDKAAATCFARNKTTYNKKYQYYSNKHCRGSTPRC
Assay type: biochemical
Source text: The following chromogenic assay procedure was used to identify and evaluate inhibitors of recombinant human secreted phospholipase A2. The assay described herein has been adapted for high volume screening using 96 well microtiter plates. A general description of this assay method is found in the article, “Analysis of Human Synovial Fluid Phospholipase A2 on Short Chain Phosphatidylcholine-Mixed Micelles: Development of a Spectrophotometric Assay Suitable for a Microtiterplate Reader”, by Laure J. Reynolds, Lori L. Hughes, and Edward A Dennis, Analytical Biochemistry, 204, pp. 190-197, 1992 (the disclosure of which is incorporated herein by reference):
A measured volume of racemic dipheptanoyl thio PC supplied in chloroform at a concentration of 100 mg/ml is taken to dryness and redissolved in 10 millimolar TRITON X-100™ nonionic detergent aqueous solution. Reaction Buffer is added to the solution, then DTNB to give the Reaction Mixture.
The reaction mixture thus obtained contains 1 mM diheptanoly thio-PC substrate, 0.29 mm Triton X-100™ detergent, and 0.12 mm DTMB in a buffered aqueous solution at pH 7.5.
• 1. Add 0.2 ml reaction mixture to all wells; • 2. Add 10 ul test compound (or solvent blank) to appropriate wells, mix 20 seconds; • 3. Add 50 nanograms of sPLA2 (10 microliters) to appropriate wells; • 4. Incubate plate at 40° C. for 30 minutes; • 5. Read absorbance of wells at 405 nanometers with an automatic plate reader.
Tests were done in triplicate. Typically, compounds were tested at a final concentration of 5 ug/ml. […] Lack of color development at 405 nanometers evidenced inhibition. Compounds initially found to be active were re-assayed to confirm their activity and, if sufficiently active, IC50 values were determined. […] In all cases, % inhibition measured at 405 nanometers generated by enzyme reactions containing inhibitors relative to the uninhibited control reactions was determined. […] IC50 values were determined by plotting log concentration versus inhibition values in the range from 10-90% inhibition.

| IC50 [µM] | Structure (SMILES) |
| --- | --- |
| 0.015 | NC(=O)c1cccc2c1c1c(OCC(=O)O)cc3c(c1n2Cc1ccccc1)CCCC3 [Example 1, (11-Benzyl-7-carbamoyl-2,3,4,11-tetraydro-1H-benzo[a]carbazol-6-yloxy)acetic Acid] |
| 0.012 | NC(=O)c1cccc2c1c1c(OCC(=O)O)cc3c(c1n2Cc1ccccc1)CCC3 [Example 2, (10-Benzyl-6-carbamoyl-1,2,3,10-tetraydrocyclopenta[a]carbazol-5-yloxy)acetic Acid] |
| 0.0094 | COC(=O)COc1cc2ccccc2c2c1c1c(C(N)=O)cccc1n2Cc1ccccc1 [Example 3, (11-Benzyl-7-carbamoyl-11H-benzo [a]carbazol-6-yloxy)acetic acid methyl ester] |
